The source of these data is PMC11167047 (Cell Death Discovery, 2024).

What all share (assay): kinome screen (33PanQinase)
Assay type in all cases: biochemical

For one test, the target named is T1, ACVR1 (Homo sapiens, UniProt Q04771).
T1 construct: purchased Reaction Biology Europe GmbH (formerly ProQinase)
T1 sequence (Q04771 21-509): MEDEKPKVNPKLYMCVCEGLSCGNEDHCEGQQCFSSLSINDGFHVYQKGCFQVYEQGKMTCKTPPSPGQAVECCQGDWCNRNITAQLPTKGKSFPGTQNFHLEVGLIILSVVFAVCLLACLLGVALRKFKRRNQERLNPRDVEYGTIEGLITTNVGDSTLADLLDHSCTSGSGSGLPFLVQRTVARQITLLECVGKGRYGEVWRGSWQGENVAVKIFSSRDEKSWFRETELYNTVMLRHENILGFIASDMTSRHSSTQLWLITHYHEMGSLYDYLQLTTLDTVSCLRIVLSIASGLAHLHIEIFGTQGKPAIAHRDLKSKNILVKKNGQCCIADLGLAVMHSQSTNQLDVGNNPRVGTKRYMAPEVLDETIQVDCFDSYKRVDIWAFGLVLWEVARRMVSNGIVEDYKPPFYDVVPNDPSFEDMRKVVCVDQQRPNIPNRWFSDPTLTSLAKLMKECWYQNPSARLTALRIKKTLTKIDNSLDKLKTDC
Here is the method:
(§1) The Kinome Screening was performed by Reaction Biology Europe GmbH (http://reactionbiology.com; Freiburg i. Br., Germany).

In another test the target is T2, CSK (Homo sapiens, UniProt P41240).
T2 construct: purchased Reaction Biology Europe GmbH (formerly ProQinase)
T2 sequence (P41240 whole entry): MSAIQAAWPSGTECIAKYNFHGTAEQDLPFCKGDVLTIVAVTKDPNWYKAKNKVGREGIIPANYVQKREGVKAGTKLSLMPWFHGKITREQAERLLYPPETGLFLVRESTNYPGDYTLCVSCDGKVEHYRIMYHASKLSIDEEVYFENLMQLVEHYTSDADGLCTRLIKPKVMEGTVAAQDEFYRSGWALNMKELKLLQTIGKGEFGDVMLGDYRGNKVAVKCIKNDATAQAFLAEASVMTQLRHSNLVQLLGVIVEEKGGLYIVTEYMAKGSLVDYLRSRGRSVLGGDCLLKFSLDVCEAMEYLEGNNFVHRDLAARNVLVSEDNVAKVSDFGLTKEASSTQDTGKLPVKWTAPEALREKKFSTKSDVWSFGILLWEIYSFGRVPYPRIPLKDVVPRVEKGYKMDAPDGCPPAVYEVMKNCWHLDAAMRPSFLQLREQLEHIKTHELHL
Here is the method: as §1

A further test addresses T3, FGFR1 (Homo sapiens, UniProt P11362).
T3 construct: purchased Reaction Biology Europe GmbH (formerly ProQinase)
Here is the method:
as §1

In another test the target is T4, INSRR (Homo sapiens, UniProt P14616).
T4 construct: purchased Reaction Biology Europe GmbH (formerly ProQinase)
Here is the method: as §1

The next test deals with T5, JNK1 (Homo sapiens, UniProt P45983).
T5 construct: purchased Reaction Biology Europe GmbH (formerly ProQinase)
T5 sequence (P45983 whole entry): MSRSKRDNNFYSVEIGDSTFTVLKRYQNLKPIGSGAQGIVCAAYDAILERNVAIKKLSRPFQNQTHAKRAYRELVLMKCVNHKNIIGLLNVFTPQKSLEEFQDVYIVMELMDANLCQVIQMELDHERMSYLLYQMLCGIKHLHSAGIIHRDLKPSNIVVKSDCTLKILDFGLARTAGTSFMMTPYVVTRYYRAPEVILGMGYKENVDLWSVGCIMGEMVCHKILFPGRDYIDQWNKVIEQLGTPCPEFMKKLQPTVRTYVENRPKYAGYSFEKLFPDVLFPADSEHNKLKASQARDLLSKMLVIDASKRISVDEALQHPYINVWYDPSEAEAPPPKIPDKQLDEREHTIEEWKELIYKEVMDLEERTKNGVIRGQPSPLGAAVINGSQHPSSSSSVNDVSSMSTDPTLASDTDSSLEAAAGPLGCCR
The procedure: as §1

The next test concerns the target T6, MAP4K5 (Homo sapiens, UniProt Q9Y4K4).
T6 construct: purchased Reaction Biology Europe GmbH (formerly ProQinase)
The procedure:
as §1

The target of a further test is T7, MINK1 (Homo sapiens, UniProt Q8N4C8).
T7 construct: purchased Reaction Biology Europe GmbH (formerly ProQinase)
T7 sequence (Q8N4C8 whole entry): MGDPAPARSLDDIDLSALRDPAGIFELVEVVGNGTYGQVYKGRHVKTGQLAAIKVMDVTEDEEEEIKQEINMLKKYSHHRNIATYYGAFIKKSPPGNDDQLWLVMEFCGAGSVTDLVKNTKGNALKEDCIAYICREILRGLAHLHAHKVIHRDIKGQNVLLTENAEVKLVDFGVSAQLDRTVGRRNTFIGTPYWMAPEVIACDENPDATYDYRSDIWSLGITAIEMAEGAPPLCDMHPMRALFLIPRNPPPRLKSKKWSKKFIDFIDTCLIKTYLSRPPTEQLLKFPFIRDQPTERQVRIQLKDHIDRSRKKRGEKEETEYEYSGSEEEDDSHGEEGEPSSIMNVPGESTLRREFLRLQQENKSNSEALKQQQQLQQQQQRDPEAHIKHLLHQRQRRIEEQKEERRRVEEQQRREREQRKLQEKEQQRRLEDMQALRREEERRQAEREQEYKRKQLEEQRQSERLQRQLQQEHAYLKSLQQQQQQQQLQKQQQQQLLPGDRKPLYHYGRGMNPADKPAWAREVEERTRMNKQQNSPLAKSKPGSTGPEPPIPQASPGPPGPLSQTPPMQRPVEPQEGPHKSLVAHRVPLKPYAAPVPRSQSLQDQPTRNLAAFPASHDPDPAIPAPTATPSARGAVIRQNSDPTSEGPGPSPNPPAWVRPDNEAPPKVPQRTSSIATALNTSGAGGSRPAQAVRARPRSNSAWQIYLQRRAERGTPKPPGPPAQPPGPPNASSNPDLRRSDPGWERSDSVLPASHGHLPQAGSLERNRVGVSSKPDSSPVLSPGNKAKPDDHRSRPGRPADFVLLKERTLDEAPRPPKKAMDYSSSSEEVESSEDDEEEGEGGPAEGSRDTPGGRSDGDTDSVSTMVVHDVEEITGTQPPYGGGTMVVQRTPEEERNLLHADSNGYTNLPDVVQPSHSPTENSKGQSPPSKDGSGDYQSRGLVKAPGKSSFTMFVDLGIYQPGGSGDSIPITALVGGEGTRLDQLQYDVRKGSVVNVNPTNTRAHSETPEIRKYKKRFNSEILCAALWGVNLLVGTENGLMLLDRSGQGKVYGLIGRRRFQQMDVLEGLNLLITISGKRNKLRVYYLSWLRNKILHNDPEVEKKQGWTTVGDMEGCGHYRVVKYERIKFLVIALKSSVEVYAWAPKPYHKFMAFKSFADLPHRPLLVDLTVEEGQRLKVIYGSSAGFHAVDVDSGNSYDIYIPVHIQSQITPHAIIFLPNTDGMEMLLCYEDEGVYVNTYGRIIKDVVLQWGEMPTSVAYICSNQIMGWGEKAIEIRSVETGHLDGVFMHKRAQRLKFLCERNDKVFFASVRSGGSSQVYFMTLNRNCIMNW
The procedure: as §1

The target in a further test is T8, MKK4 (Homo sapiens, UniProt P45985).
T8 construct: purchased Reaction Biology Europe GmbH (formerly ProQinase)
T8 sequence (P45985 1-399): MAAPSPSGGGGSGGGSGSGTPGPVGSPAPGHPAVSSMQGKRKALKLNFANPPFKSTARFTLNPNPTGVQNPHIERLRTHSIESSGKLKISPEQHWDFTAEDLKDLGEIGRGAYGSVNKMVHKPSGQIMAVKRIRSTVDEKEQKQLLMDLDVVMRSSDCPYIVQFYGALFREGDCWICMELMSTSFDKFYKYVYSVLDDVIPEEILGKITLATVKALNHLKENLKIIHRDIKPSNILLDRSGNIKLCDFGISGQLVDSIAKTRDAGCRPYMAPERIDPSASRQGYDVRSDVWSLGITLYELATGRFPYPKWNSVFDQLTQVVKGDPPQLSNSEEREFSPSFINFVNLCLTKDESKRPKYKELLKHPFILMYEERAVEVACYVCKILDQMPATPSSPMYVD
The procedure: as §1

The next test addresses T9, TEC (Homo sapiens, UniProt P42680).
T9 construct: purchased Reaction Biology Europe GmbH (formerly ProQinase)
T9 sequence (P42680 1-631): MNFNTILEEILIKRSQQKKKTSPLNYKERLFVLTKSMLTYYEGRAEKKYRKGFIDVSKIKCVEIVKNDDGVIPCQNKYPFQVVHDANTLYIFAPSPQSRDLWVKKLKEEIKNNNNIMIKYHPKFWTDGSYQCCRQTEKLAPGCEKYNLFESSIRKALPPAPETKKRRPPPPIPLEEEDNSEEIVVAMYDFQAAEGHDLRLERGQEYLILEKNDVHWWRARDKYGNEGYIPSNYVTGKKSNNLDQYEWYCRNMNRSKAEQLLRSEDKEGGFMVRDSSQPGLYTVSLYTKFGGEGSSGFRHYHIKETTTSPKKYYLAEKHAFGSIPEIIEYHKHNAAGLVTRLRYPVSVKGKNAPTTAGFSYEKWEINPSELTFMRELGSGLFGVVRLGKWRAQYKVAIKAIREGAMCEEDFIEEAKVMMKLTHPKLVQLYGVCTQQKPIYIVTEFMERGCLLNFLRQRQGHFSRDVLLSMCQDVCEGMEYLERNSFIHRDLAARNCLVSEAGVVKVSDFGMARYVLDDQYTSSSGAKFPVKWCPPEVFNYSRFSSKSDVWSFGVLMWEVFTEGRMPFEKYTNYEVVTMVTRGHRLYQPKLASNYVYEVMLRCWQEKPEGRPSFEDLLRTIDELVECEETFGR
Here is the method:
as §1

For another test, the target named is T10, TTBK2 (Homo sapiens, UniProt Q6IQ55).
T10 construct: purchased Reaction Biology Europe GmbH (formerly ProQinase)
T10 sequence (Q6IQ55 whole entry): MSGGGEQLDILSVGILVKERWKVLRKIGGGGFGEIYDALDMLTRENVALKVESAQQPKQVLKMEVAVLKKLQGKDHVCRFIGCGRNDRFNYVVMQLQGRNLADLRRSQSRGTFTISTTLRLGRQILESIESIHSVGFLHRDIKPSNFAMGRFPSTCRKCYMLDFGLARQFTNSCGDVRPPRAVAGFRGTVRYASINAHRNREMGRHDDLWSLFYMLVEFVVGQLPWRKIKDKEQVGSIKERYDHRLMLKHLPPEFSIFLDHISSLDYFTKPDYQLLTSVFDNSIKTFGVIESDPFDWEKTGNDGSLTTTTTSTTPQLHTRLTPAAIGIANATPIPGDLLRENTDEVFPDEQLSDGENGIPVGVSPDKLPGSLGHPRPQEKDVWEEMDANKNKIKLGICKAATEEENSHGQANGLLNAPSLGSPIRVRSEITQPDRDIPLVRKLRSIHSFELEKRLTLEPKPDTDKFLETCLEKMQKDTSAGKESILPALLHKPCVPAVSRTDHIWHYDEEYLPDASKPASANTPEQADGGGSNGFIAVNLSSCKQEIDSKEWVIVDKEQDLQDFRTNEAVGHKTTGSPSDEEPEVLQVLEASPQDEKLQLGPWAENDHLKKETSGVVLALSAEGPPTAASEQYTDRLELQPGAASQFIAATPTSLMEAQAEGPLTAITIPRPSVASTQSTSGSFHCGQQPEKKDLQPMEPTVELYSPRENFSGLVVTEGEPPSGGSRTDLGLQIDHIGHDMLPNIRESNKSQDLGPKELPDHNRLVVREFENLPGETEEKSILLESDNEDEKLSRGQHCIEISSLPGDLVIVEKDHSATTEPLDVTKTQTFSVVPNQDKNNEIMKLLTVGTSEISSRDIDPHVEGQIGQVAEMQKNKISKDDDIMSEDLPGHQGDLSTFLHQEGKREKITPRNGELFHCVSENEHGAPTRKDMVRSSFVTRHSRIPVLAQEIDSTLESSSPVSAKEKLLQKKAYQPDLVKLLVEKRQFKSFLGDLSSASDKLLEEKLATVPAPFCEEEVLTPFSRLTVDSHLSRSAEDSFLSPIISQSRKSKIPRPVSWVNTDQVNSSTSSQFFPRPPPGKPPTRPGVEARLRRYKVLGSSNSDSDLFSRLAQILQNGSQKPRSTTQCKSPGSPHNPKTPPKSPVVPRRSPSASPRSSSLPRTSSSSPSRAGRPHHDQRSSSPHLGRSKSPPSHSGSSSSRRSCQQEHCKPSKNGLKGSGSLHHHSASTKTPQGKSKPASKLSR
Here is the method: as §1

The target of the next test is T11, WEE1 (Homo sapiens, UniProt P30291).
T11 construct: purchased Reaction Biology Europe GmbH (formerly ProQinase)
T11 sequence (P30291 whole entry): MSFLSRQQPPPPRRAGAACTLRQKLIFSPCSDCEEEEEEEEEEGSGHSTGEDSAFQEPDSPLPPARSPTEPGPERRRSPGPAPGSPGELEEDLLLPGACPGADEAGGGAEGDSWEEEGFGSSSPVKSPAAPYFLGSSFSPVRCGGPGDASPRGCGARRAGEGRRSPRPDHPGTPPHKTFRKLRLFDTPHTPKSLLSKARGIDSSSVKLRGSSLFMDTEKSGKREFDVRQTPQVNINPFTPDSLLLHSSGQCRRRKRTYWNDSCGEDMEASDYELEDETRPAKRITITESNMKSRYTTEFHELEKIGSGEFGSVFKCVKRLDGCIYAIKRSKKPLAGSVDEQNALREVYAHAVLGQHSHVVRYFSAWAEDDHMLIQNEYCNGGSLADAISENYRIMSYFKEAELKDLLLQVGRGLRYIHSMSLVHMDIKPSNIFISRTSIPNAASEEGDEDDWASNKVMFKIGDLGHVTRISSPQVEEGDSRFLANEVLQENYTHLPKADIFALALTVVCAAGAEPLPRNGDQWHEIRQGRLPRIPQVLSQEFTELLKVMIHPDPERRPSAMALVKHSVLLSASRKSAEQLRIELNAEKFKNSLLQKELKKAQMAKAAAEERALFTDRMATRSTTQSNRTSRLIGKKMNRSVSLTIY
The procedure:
as §1

A further test addresses T12, ZAP70 (Homo sapiens, UniProt P43403).
T12 construct: purchased Reaction Biology Europe GmbH (formerly ProQinase)
T12 sequence (P43403 1-619): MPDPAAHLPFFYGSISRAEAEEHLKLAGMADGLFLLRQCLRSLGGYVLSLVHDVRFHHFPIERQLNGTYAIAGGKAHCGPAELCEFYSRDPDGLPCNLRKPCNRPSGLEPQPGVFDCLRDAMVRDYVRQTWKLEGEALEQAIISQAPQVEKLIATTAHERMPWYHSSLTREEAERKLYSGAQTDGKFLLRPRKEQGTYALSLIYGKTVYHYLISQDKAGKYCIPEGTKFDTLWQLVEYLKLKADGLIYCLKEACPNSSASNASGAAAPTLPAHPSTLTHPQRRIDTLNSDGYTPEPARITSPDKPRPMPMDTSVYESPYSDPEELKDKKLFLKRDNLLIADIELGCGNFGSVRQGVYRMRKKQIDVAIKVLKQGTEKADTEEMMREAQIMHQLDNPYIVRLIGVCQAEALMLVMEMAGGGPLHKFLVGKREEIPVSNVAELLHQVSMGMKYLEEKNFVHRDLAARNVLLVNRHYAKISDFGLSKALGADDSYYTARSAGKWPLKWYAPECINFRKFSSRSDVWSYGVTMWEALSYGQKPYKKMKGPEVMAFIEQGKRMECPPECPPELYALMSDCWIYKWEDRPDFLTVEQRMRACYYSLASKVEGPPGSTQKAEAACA
The procedure: as §1

T3 sequence (P11362 22-822): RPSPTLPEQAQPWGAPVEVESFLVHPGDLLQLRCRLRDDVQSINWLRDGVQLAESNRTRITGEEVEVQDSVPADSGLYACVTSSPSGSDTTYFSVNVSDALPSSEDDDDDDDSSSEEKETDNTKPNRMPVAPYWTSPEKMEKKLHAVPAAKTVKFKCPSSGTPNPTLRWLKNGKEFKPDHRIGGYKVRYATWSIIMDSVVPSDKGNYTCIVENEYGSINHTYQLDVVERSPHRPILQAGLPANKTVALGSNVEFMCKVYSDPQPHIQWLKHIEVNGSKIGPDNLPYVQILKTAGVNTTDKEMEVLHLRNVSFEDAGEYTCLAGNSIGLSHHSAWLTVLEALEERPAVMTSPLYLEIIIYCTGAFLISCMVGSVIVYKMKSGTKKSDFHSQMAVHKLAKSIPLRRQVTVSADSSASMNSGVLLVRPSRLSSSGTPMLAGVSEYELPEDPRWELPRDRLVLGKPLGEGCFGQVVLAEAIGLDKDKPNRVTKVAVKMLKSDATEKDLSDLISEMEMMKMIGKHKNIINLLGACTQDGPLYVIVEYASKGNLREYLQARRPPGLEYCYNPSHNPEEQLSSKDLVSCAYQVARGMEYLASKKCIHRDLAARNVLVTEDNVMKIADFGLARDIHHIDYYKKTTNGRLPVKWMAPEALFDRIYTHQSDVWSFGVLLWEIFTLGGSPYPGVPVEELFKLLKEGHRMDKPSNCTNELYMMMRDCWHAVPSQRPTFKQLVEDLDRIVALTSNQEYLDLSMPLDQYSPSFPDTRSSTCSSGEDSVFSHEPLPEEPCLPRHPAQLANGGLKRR

For `c1ccc(CNc2cc(-c3c[nH]c4ncccc34)ccn2)cc1` [meriolin 36], the residual kinase activity on ACVR1 (0.3 µM) was 24 % of control; at ACVR1 (3 µM) it was 1 % of control; on CSK (0.3 µM), 116 % of control; on CSK (3 µM), 71 % of control; at FGFR1 (0.3 µM), 56 % of control; on FGFR1 (3 µM) it was 16 % of control. Further, the residual kinase activity is 85 % of control at INSRR (0.3 µM); 39 % of control on INSRR (3 µM); 74 % of control on JNK1 (0.3 µM); 23 % of control at JNK1 (3 µM); 3 % of control at MAP4K5 (0.3 µM); 0 % of control on MAP4K5 (3 µM). Further, the residual kinase activity on MINK1 (0.3 µM) was 2 % of control; at MINK1 (3 µM), 0 % of control; on MKK4 (0.3 µM), 45 % of control; on MKK4 (3 µM) it was 9 % of control; on TEC (0.3 µM), 114 % of control; at TEC (3 µM), 96 % of control. Further, the residual kinase activity is on record as 93 % of control on TTBK2 (0.3 µM); 56 % of control on TTBK2 (3 µM); 72 % of control on WEE1 (0.3 µM); 37 % of control on WEE1 (3 µM); 110 % of control at ZAP70 (0.3 µM); 85 % of control on ZAP70 (3 µM).

With `COc1ccnc2[nH]cc(-c3cc(N)nc(N)c3)c12` [meriolin 16], the residual kinase activity at ACVR1 (0.03 µM) is recorded as 89 % of control; on ACVR1 (0.3 µM) it was 72 % of control; at CSK (0.03 µM), 114 % of control; at CSK (0.3 µM) it was 106 % of control; at FGFR1 (0.03 µM) it was 103 % of control; at FGFR1 (0.3 µM) it was 91 % of control. Further, the residual kinase activity at INSRR (0.03 µM) was 97 % of control; at INSRR (0.3 µM), 96 % of control; at JNK1 (0.03 µM) it was 102 % of control; on JNK1 (0.3 µM) it was 95 % of control; on MAP4K5 (0.03 µM), 87 % of control; at MAP4K5 (0.3 µM) it was 52 % of control. The residual kinase activity at MINK1 (0.03 µM) is 75 % of control; at MINK1 (0.3 µM), 20 % of control; on MKK4 (0.03 µM), 86 % of control; on MKK4 (0.3 µM) it was 66 % of control; on TEC (0.03 µM) it was 110 % of control; at TEC (0.3 µM), 101 % of control. Moreover, the residual kinase activity at TTBK2 (0.03 µM) is 96 % of control; on TTBK2 (0.3 µM) it was 91 % of control; at WEE1 (0.03 µM), 80 % of control; at WEE1 (0.3 µM) it was 99 % of control; on ZAP70 (0.03 µM), 95 % of control; at ZAP70 (0.3 µM) it was 83 % of control.
